In PMC10657444, “Design and evaluation of tadpole-like conformational antimicrobial peptides” (Communications Biology, 2023):
Several values for one entry are separate records, joined by “and”; a condition that tells them apart may be missing. Equal values may be shown once. Read-outs that look alike come from different tables or passages of the source. Residues, ends and D or L forms follow the SMILES beside them.

How the values were obtained:
MRSA = format: cell-based, Staphylococcus aureus
Description: (§1) Bacteria were cultivated in Luria-Bertani (LB) broth.

MRSA USA 300 [1] = assay: Transmission electron microscopy; format: cell-based, Staphylococcus aureus; conditions: 2 × MIC, 60 min
Experimental: The processing method of the samples for transmission electron microscopy (TEM) was the same as the treatment for SEM. The samples were then prefixed with 2.5% glutaraldehyde at 4°C overnight, post-fixed with osmium tetroxide for 70 min, and washed twice with PBS (pH 7.4). Subsequently, the samples were dehydrated for 10 min in a graded ethanol series (30, 50, 70, 90, and 100%) followed by 10 min in a mixture of absolute ethanol and acetone (1:1, v/v) and 10 min in absolute acetone. The specimens were transferred to a mixture of absolute acetone and epoxy resin (1:1, v/v) for 30 min and then to pure epoxy resin overnight at a constant temperature. Finally, the samples were sectioned using an ultramicrotome, stained with uranyl acetate and lead citrate, and then observed by TEM (Hitachi H-7650, Japan).

MRSA USA 300 [2] = assay: Scanning electron microscopy; format: cell-based, Staphylococcus aureus; conditions: 2 × MIC, 60 min
Experimental: (§2) Mid-log phase bacteria (MRSA USA 300 and K. pneumoniae ATCC 700603) grown in LB broth were adjusted to a density of 5 × 10^6 CFU/mL. […] All samples were centrifuged at 8000 rpm for 5 min, washed and then resuspended in PBS. Bacterial cells were fixed with 2.5% glutaraldehyde, and then incubated at 37°C on a glass slide for 20 min. Samples were dehydrated by passing through gradient ethanol (10%, 30%, 50%, 70%, 90%, and 100%) for 5 min at each concentration. Slides were dried with an automatic critical point drying instrument (Leica EM CPD300), and a small amount of gold was sputtered onto the samples using a sputter coater system to avoid charging in the microscope. Finally, the bacteria were visualized under a field-emission scanning electron microscopy (FESEM) device (Sirion 200).

[3] = tested on: K. pneumoniae ATCC 700603; assay: Time-kill assay; format: cell-based, Klebsiella pneumoniae
Experimental: (§3) Time-kill assays were done in tubes (in 1.5 mL of LB) and antibiotics at the 1 ×, 2 ×, 4 × and 8 × MIC. Tubes were inoculated (5 × 10^6 CFU/mL) with MRSA USA 300 and K. pneumoniae ATCC 700603 and incubated at 37 °C under shaking. Serial dilutions of the cultures were plated at each desired time point (0, 1, 3, 6, and 24 h), using a multichannel pipette as follows: in line 1 of a 96-well plate, 100 µL of bacterial suspension was added, while 90 µL of 0.9% sterile saline per well was added to the other lines. At selected time points, 100 µL of bacterial suspension was transferred from the time-kill assay plate to the first line. The wells were further diluted 1 in 10 (0.9% saline) for the appropriate number of dilutions and 10 μL of each dilution was spotted in duplicate onto MH agar plates, then incubated overnight at 37°C. The colonies in each spot were counted and used to calculate the number of viable CFU/mL remaining in the original culture by considering the dilution factors.

[4] = tested on: K. pneumoniae ATCC 700603; assay: Scanning electron microscopy; format: cell-based, Klebsiella pneumoniae; conditions: 2 × MIC, 60 min
Experimental: as §2

sheep red blood cells = assay: Hemolysis assay
[5] = tested on: Gram-negative bacterial strains; format: cell-based; conditions: A. baumannii and Klebsiella pneumoniae
Description: as §1

MTT cytotoxicity assay = format: cell-based, human; conditions: human
HEK293T cells = assay: MTT cytotoxicity assay; format: cell-based, human; conditions: for percent cell viability: HEK293T
MRSA USA 300 [6] = assay: Time-kill assay; format: cell-based, Staphylococcus aureus
Experimental: as §3

[7] = HEK293T cells, OD450, cytotoxicity (Fig 2a), replicates

CC[C@H](C)[C@H](NC(=O)[C@H](CCCNC(=N)N)NC(=O)[C@H](CCCNC(=N)N)NC(=O)[C@H](CC(C)C)NC(=O)[C@H](Cc1ccccc1)NC(=O)[C@@H](N)CCCNC(=N)N)C(=O)N[C@@H](Cc1ccccc1)C(=O)N[C@@H](Cc1ccccc1)C(=O)N[C@@H](Cc1ccccc1)C(=O)N[C@@H](Cc1ccccc1)C(N)=O [HT2] (H-RFLRRIFFFF-NH2)
MICs against Gram-positive bacterial strains (MRSA): 1.57 to 3.13 µM
membrane and intracellular structure by TEM (in words) (MRSA USA 300 [1]): cytoplasmic membranes became blurred and separated
cell surface morphology by SEM (in words) (MRSA USA 300 [2]): rough, shrunken, wrinkled and partially damaged
viable count, time-kill ([3]; 2 × MIC, 0 h): 3000000 CFU/mL and 3500000 CFU/mL and 3400000 CFU/mL
viable count, time-kill ([3]; 2 × MIC, 1 h): 275000 CFU/mL and 375000 CFU/mL and 310000 CFU/mL
viable count, time-kill ([3]; 2 × MIC, 3 h): 33000 CFU/mL and 31000 CFU/mL
viable count, time-kill ([3]; 2 × MIC, 6 h): 14000 CFU/mL and 18000 CFU/mL and 16000 CFU/mL
viable count, time-kill ([3]; 2 × MIC, 24 h): 18000 CFU/mL and 24000 CFU/mL and 23000 CFU/mL
viable count, time-kill ([3]; 4 × MIC, 0 h): 3000000 CFU/mL and 3500000 CFU/mL and 3400000 CFU/mL
viable count, time-kill ([3]; 4 × MIC, 1 h): 70000 CFU/mL and 65000 CFU/mL and 66000 CFU/mL
viable count, time-kill ([3]; 4 × MIC, 6 h): 8000 CFU/mL and 7400 CFU/mL and 9000 CFU/mL
viable count, time-kill ([3]; 4 × MIC, 24 h): 16000 CFU/mL and 21000 CFU/mL and 19000 CFU/mL
viable count, time-kill ([3]; 8 × MIC, 0 h): 3000000 CFU/mL and 3500000 CFU/mL and 3400000 CFU/mL
viable count, time-kill ([3]; 8 × MIC, 1 h): 520000 CFU/mL and 540000 CFU/mL and 550000 CFU/mL
viable count, time-kill ([3]; 8 × MIC, 3 h): 500 CFU/mL and 700 CFU/mL
viable count, time-kill ([3]; 8 × MIC, 24 h): 100 CFU/mL and 200 CFU/mL
killing outcome (in words) ([3]; 8 × MIC, after 24 h): cannot completely be killed
viable count, time-kill ([3]; MIC, 0 h): 3000000 CFU/mL and 3500000 CFU/mL and 3400000 CFU/mL
viable count, time-kill ([3]; MIC, 1 h): 400000 CFU/mL and 330000 CFU/mL and 410000 CFU/mL
viable count, time-kill ([3]; MIC, 6 h): 430000 CFU/mL and 570000 CFU/mL and 480000 CFU/mL
viable count, time-kill ([3]; MIC, 24 h): 51000000 CFU/mL and 58000000 CFU/mL and 54000000 CFU/mL
cell surface morphology by SEM (in words) [4]: rough, shrunken, wrinkled and partially damaged
OD450, hemolysis (Fig 2b), replicates (sheep red blood cells; 6.25 µM): 0.02117 (2×) and 0.02078 and 0.02133 (2×) and 0.02093
OD450, hemolysis (Fig 2b), replicates (sheep red blood cells; 12.5 µM): 0.02313 and 0.0233
HC10 (concentration inducing 10% hemolysis) (sheep red blood cells; red cells of sheep, 1 h): > 100.0 µM
MICs against Gram-negative bacterial strains, such as A. baumannii and Klebsiella pneumoniae [5]: 6.25 µM
IC50 at 72 h (MTT cytotoxicity assay): > 100 µM
viability at 72 h, 0.39 µM (MTT cytotoxicity assay; HEK293T cells, HEK293T, 0.39 µM, read-out: OD450, cytotoxicity (Fig 2a), replicates): 96.7%
viability at 72 h, 6.25 µM (MTT cytotoxicity assay; HEK293T cells, HEK293T, 6.25 µM, read-out: OD450, cytotoxicity (Fig 2a), replicates): 99.2%
viability at 72 h, 12.5 µM (MTT cytotoxicity assay; HEK293T cells, HEK293T, 12.5 µM, read-out: OD450, cytotoxicity (Fig 2a), replicates): 92.8%
viability at 72 h, 0.39 µM (MTT cytotoxicity assay; [7]): 100%
viability at 72 h, 0.78 µM (MTT cytotoxicity assay; [7]): 94.2%
viability at 72 h, 1.57 µM (MTT cytotoxicity assay; [7]): 93.1%
viability at 72 h, 3.13 µM (MTT cytotoxicity assay; [7]): 95.4%
viability at 72 h, 25 µM (MTT cytotoxicity assay; [7]): 93.2%
viability at 72 h, 50 µM (MTT cytotoxicity assay; [7]): 98.4%
viability at 72 h, 100 µM (MTT cytotoxicity assay; [7]): 94.3%
toxicity / cytotoxicity against HEK293T cells (in words) (HEK293T cells): did not present
percent cell viability (HEK293T cells; 6.25 µM): 93.7324 and 94.5028
percent cell viability (HEK293T cells; 12.5 µM): 96.2979 and 92.259
viable count, time-kill (MRSA USA 300 [6]; 2 × MIC, 0 h): 3600000 CFU/mL and 3500000 CFU/mL and 3200000 CFU/mL
viable count, time-kill (MRSA USA 300 [6]; 2 × MIC, 3 h): 3900000 CFU/mL and 3800000 CFU/mL
viable count, time-kill (MRSA USA 300 [6]; 2 × MIC, 6 h): 1700000 CFU/mL and 1900000 CFU/mL
viable count, time-kill (MRSA USA 300 [6]; 2 × MIC, 24 h): 910000 CFU/mL and 920000 CFU/mL and 890000 CFU/mL
viable count, time-kill (MRSA USA 300 [6]; 4 × MIC, 0 h): 3600000 CFU/mL and 3500000 CFU/mL and 3200000 CFU/mL
viable count, time-kill (MRSA USA 300 [6]; 4 × MIC, 1 h): 970000 CFU/mL and 1040000 CFU/mL and 1090000 CFU/mL
viable count, time-kill (MRSA USA 300 [6]; 4 × MIC, 3 h): 840000 CFU/mL and 870000 CFU/mL and 910000 CFU/mL
viable count, time-kill (MRSA USA 300 [6]; 4 × MIC, 6 h): 150000 CFU/mL and 160000 CFU/mL and 180000 CFU/mL
viable count, time-kill (MRSA USA 300 [6]; 4 × MIC, 24 h): 68000 CFU/mL and 71000 CFU/mL and 72000 CFU/mL
viable count, time-kill (MRSA USA 300 [6]; 8 × MIC, 0 h): 3600000 CFU/mL and 3500000 CFU/mL and 3200000 CFU/mL
viable count, time-kill (MRSA USA 300 [6]; 8 × MIC, 1 h): 990000 CFU/mL and 950000 CFU/mL and 910000 CFU/mL
viable count, time-kill (MRSA USA 300 [6]; 8 × MIC, 3 h): 580000 CFU/mL and 590000 CFU/mL
viable count, time-kill (MRSA USA 300 [6]; 8 × MIC, 6 h): 68000 CFU/mL and 70000 CFU/mL and 77000 CFU/mL
viable count, time-kill (MRSA USA 300 [6]; 8 × MIC, 24 h): 1000 CFU/mL and 1100 CFU/mL and 1400 CFU/mL
killing outcome (in words) (MRSA USA 300 [6]; 8 × MIC, after 24 h): cannot completely be killed
viable count, time-kill (MRSA USA 300 [6]; MIC, 0 h): 3600000 CFU/mL and 3500000 CFU/mL and 3200000 CFU/mL
viable count, time-kill (MRSA USA 300 [6]; MIC, 1 h): 4600000 CFU/mL and 4900000 CFU/mL
viable count, time-kill (MRSA USA 300 [6]; MIC, 3 h): 2100000 CFU/mL and 2000000 CFU/mL and 2300000 CFU/mL
viable count, time-kill (MRSA USA 300 [6]; MIC, 6 h): 2800000 CFU/mL and 2500000 CFU/mL and 1700000 CFU/mL
viable count, time-kill (MRSA USA 300 [6]; MIC, 24 h): 4100000000 CFU/mL and 4400000000 CFU/mL and 4900000000 CFU/mL
